# Results reported in publication PMC11754443, “Synthesis, H2S releasing properties, antiviral and antioxidant activities and acute cardiac effects of nucleoside 5′-dithioacetates” (Scientific Reports, 2025).
# Where two headings read alike, the source gives them in different places.
# How the values were obtained:
# [1] = system: perivascular adipose tissue; set-up: method as in PMID 26120822; details: obese rats, through H2S release; cited from earlier work
# [2] = set-up: method as in PMID 26809888; details: administered at the end of sustained ischemia; cited from earlier work
# [3] = DPPH radical scavenging assay; details: for IC50: without extract
# Method: DPPH is a stable free radical with a deep violet color that changes to yellow when neutralized by an electron or hydrogen radical, indicating the antioxidant activity of the sample being tested. The DPPH radical scavenging abilities were investigated following the method outlined by Shimamura et al., with minor adjustments. In this study, a cardiovascular tissue homogenate was used to induce H2S release from the dithioacetate derivatives 22 and 24, as well as GYY4137. A mixed solution of 1.2 mL of methanol and 800 µL of 0.1 M Tris-HCl buffer (pH 7.4) served as the blank. 1 mL DPPH solution was added to a mixture of methanol and 0.1 M Tris-HCl buffer (200:800 µL). After mixing, the absorbance was recorded at 517 nm on a UV-1600 PC VWR spectrophotometer (VWR, China). To avoid any potential interference from the heart extract in the assay, we measured the absorbance after adding different volumes of the extract into the mixture. These measurements were taken both immediately and after 30 min of incubation.
# The DPPH antioxidant assay was performed according to the following procedures. 1 mL of DPPH solution was added to a mixture of 200 µL of the methanolic sample solution and 800 µL of 0.1 M Tris-HCl buffer (pH = 7.4). For the groups containing the extract, the extract was introduced into a mixture of the sample solution in PBS buffer, 0.1 M Tris-HCl buffer, and DPPH (200:800:1000 µL). Considering that GYY4137 produces H2S upon hydrolysis, it was introduced last following the addition of the extract into a solution of PBS buffer, 0.1 M Tris-HCl buffer, and DPPH maintained at the same ratio. The same protocol was employed for NaHS without the addition of the extract. After mixing, the absorbance was promptly recorded, after which the solutions were incubated in the dark at room temperature for 30 min before the absorbance was measured again. The test samples were prepared and assayed at varying concentrations using a 2-fold serial dilution method, starting from a concentration of 2 mM. Each investigation was performed in triplicate, and the antioxidant activity was based on the absorbance recorded at 517 nm. Ascorbic acid (AA), GYY4137, and NaHS served as positive controls, while the unmodified nucleosides were used as reference compounds.
# The inhibition ratio (IR) was calculated as follows: [drawing 1] where Ac is the absorbance when methanol is added instead of the sample and As is the absorbance when the testing sample solution is added.
# The antioxidant capacity was expressed as the concentration needed to achieve a 50% inhibition of the free radical (IC50). The IC50 values were calculated by plotting the percent of inhibition as a function of sample concentration.
# [4] = ABTS radical cation decolorization assay; details: 0.1 mM, compared with parent dithioacetates 22 and 24
# Method: The ABTS decolorization assay was carried out as described by Szoke et al.[54] Briefly, the method is based on the scavenging of (2,2′-azinobis-(3-ethylbenzothiazoline-6-sulfonic acid) ABTS^•+ radical cation. The decolorization caused by the compound is compared to the decolorization induced by Trolox (6-hydroxy-2,5,7,8-tetramethylchroman-2-carboxylic acid), and expressed as Trolox equivalent antioxidant capacity (TEAC) value. TEAC values were expressed as Trolox equivalents calculated from (Ai − Af)antioxidant/(Ai − Af) Trolox at 0.1 mM concentrations. Briefly, a total of 10 µL sample, 20 µL of Myoglobin Working Solution, and 150 µL of ABTS Substrate Working Solution were mixed and incubated for 5 min at room temperature. At the end of incubation […] of Stop Solution was added and endpoint absorbance at 405 nm was read. All experiments were performed in triplicates and repeated three times.
# [5] = system: anaesthetized Sprague-Dawley rats; experiment: Cardiac effects by ECG and echocardiography in anaesthetized rats; assay type: in vivo, rat; details: 2 mg/kg i.v.
# Method: The animals received humane care, and all experimental procedures were carried out in accordance with the “Principles of Laboratory Animal Care” by EU Directive 2010/63/EU. All experimental protocols were approved by the local Ethics Committee of University of Debrecen (25/2023/DEMÁB). Animal experiments are reported in compliance with the ARRIVE guidelines. Anesthesia was carried out using ketamine/xylazine mixture (100/10 mg/kg, i.m.). The chest was shaved and the animal was placed onto a heated pad (VisualSonics SR200, VisualSonics, Amsterdam, The Netherlands). The lateral tail vein was cannulated using a heparinized 26G i.v. cannula (BD Neoflon, BD Medical, NJ, USA). B-mode and M-mode echocardiography was carried out before and 30 s after the intravenous administration of the compounds. A high-resolution ultrasound machine (Vevo 3100 Imaging Station, VisualSonics, Amsterdam, The Netherlands) equipped with a […] transducer (MX201) was used for assessing cardiac parameters. Traces were obtained from the parasternal long axis view (PLAX). A B-mode video and an M-mode trace was recorded, and the following parameters were then offline analysed: left ventricle (LV) end-systolic and end-diastolic volume (LVESV, LVEDV, respectively) fractional shortening (FS) and ejection fraction (EF) and stroke volume (SV).
# A 3-channel ECG was continuously recorded during the experiments (Vevo monitor ECG, VisualSonics, Amsterdam, The Netherlands). On the recorded ECG data, RR, PR and QT intervals, and heart rate (HR) were determined before and 30 s after the administration of the drugs, and 6 consecutive cardiac cycles were averaged for each parameter.
# Statistical analyses for the in vivo studies were carried out using the GraphPad Prism 9.0 software (GraphPad Software, San Diego, CA, USA). Data distribution was assessed by the Shapiro-Wilk normality test, and paired t-test were used to determine the differences between the baseline (drug free) and endpoint (treated) parameters in each group. A multiple comparison was also carried out between the treatment groups by using one-way ANOVA with Tukey multiple comparison test. Data was shown as mean ± SD, and differences with p < 0.05 were considered significant.
# [6] = system: SARS-CoV-2 (strain hCoV-19/Czech Republic/NRL_6632_2/2020); experiment: Anti-SARS-CoV-2 cytopathic-effect-based assay in Calu-3 cells (CellTiter-Glo); assay type: cell-based; details: Severe acute respiratory syndrome coronavirus 2, compound added 2 h after infection, MOI 0.3, read after two days, read-out: EC50 ± SE, anti-SARS-CoV-2 activity
# SARS-CoV-2 = assay type: cell-based; details: medium of Calu-3 cells infected 2 days at the highest compound concentration, plaque assay in Vero E6 cells
# [7] = Cytotoxicity in Calu-3 cells (CellTiter-Glo); assay type: cell-based, human; details: human
# Method: Cytotoxicity was evaluated by incubating the same two-fold serial dilutions of each compound with Calu-3 cells as above in the absence of the virus. Following two days incubation at 37 °C in 5% CO2, the cell viability was determined as above. The compound concentrations resulting in 50% reduction of cell viability (CC50) were calculated from plots of percentage of luminescence versus log10 drug concentration as above. Remdesivir was used as control in both assays.
# [8] = anaesthetized SD rats, 30 s after administration, mean ± SD
smiles,measurement,setting,value
Nc1nc2c(ncn2[C@@H]2O[C@H](COP(O)(O)=S)[C@@H](O)[C@H]2O)c(=O)[nH]1 [Compound 3],effect on anti-contractile effects of perivascular adipose tissue,[1],restore the anti-contractile effects of perivascular adipose tissue in obese rats
Nc1ncnc2c1ncn2[C@@H]1O[C@H](COP(O)(O)=S)[C@@H](O)[C@H]1O [Compound 2],effect on anti-contractile effects of perivascular adipose tissue,[1],restore the anti-contractile effects of perivascular adipose tissue in obese rats
NC(=S)c1ccc(OC[C@H]2O[C@@H](n3cnc4c(N)ncnc43)[C@H](O)[C@@H]2O)cc1 [Compound 1],effect on infarct size,[2],significantly reduced infarct size
"Nc1ncnc2c1ncn2[C@@H]1O[C@H](CS)[C@@H](O)[C@H]1O [Compound 34, 5′-Deoxy-5′-thioadenosine]",DPPH inhibition ratio after 30 min incubation,"[3]; 2 mM, after 30 min incubation",90%
same,DPPH inhibition ratio immediately,"[3]; 2 mM, immediately",70–80%
same,IC50,"[3]; after 30 min incubation, read-out: DPPH IC50 30 min",580 µM
same,DPPH activity lower than that of ascorbic acid,"[3]; from IC50 values, relative to ascorbic acid",10 times
same,IC50,"[3]; measured immediately, read-out: DPPH IC50 immediately",720 µM
same,"ABTS antioxidant activity (Trolox equivalents), in words",[4],higher antioxidant activity than the parent dithioacetate derivatives
same,Ejection Fraction,[5]; [8],82.14±5.877%
same,Heart rate,[5]; [8],97.25±24.66 bpm
same,PR interval,[5]; [8],49.43 ± 6.973 ms
same,QT interval,[5]; [8],158.3 ± 35.8 ms
same,Stroke Volume,[5]; [8],335.6 ± 68.82 µL
same,duration of negative chronotropic action compared with adenosine,[5]; anaesthetized rats,their duration of action was longer
same,heart block (in words),[5]; anaesthetized rats,"None of the new compounds (22, 24, and 34) induced complete heart block or pauses"
"CCC(CC)COC(=O)[C@H](C)N[P@](=O)(OC[C@H]1O[C@@](C#N)(c2ccc3c(N)ncnn23)[C@H](O)[C@@H]1O)Oc1ccccc1 [Remdesivir, reference compound]",EC50,[6],0.5 ± 0.26 µM
same,SARS-CoV-2 titer reduction,SARS-CoV-2,7.1 log10 PFU/mL
same,CC50 at 2 days,[7],> 10 µM
